Biological target: T1, rat NaPi-2b (Rattus norvegicus, UniProt Q9JJ09)
T1 construct: expressed in transfected cells; host or cells: Xenopus oocytes injected with cRNA
T1 sequence (Q9JJ09 1-695): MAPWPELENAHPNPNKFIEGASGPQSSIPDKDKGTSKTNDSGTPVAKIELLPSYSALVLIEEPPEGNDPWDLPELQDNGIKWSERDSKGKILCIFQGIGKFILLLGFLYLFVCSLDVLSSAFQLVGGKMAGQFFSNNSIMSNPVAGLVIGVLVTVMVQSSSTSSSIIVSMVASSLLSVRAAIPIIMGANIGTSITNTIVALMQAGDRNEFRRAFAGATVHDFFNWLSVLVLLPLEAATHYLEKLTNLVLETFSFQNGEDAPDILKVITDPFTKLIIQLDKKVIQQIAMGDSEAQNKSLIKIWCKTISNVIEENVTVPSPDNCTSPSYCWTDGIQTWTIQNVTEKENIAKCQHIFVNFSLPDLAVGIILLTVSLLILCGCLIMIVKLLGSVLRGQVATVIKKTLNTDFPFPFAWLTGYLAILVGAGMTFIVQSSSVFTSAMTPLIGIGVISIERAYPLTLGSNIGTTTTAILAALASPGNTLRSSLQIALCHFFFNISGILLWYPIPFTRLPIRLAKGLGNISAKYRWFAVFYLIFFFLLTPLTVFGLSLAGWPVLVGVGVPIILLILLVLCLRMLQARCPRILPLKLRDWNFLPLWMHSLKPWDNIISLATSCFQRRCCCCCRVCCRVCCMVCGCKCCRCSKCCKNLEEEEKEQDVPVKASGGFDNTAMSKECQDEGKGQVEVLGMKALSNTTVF
Assay: Sodium-dependent phosphate uptake of Xenopus oocytes which expressed NaPi-2b (32P)
Assay type: cell-based
Settings: Xenopus oocytes expressing rat NaPi-2b, 32P radioactive phosphorus; read-out: IC50 (phosphate uptake inhibitory activity)
Method in brief: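 Steps: rat NaPi-2b cDNA cloned from small intestine; cRNA made and injected into oocytes; 2-day expression; 32P phosphate uptake with compound; % inhibition at 300/100 μM taken from one curve.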

Row | SMILES | IC50 [µM]
1 | Cc1csc(NC(=O)c2cccc(CN3CCC(O)CC3)c2)c1C(=O)N/N=C/c1ccc(F)cc1 [Compound 595, N-[3-(4-Fluoro-benzylidene-hydrazinocarbonyl)-4-methyl-thiophen-2-yl]-3-(4-hydroxy-piperidin-1-ylmethyl)-benzamide] | 3.87
2 | Cc1csc(NC(=O)c2cccc(CN3CCC(O)CC3)c2)c1C(=O)N/N=C/c1cccc(F)c1 [Compound 596, N-[3-(3-Fluoro-benzylidene-hydrazinocarbonyl)-4-methyl-thiophen-2-yl]-3-(4-hydroxy-piperidin-1-ylmethyl)-benzamide] | 5.47
3 | Cc1csc(NC(=O)c2cccc(CN3CCC(CO)CC3)c2)c1C(=O)N/N=C/c1cccc(F)c1 [Compound 602, N-[3-(3-Fluoro-benzylidene-hydrazinocarbonyl)-4-methyl-thiophen-2-yl]-3-(4-hydroxymethyl-piperidin-1-ylmethyl)-benzamide] | 3.98
4 | COc1ccc(/C=N/NC(=O)c2c(C)csc2NC(=O)c2cccc(CN3CCC(CO)CC3)c2)cc1 [Compound 604, 3-(4-Hydroxymethyl-piperidin-1-ylmethyl)-N-[3-(4-methoxy-benzylidene-hydrazinocarbonyl)-4-methyl-thiophen-2-yl]-benzamide] | 9.23
5 | Cc1ccc(/C=N/NC(=O)c2c(NC(=O)c3cccc(CSCCCO)c3)sc3c2CCCC3)cc1C [Compound 605, N-[3-(3,4-Dimethyl-benzylidene-hydrazinocarbonyl)-4,5,6,7-tetrahydro-benzo[b]thiophen-2-yl]-3-(3-hydroxy-propylsulfanyl-methyl)-benzamide] | 0.95
6 | O=C(Nc1sc2c(c1C(=O)N/N=C/c1ccc(F)cc1)CCCC2)c1cccc(CSCCCO)c1 [Compound 606, N-[3-(4-Fluoro-benzylidene-hydrazinocarbonyl)-4,5,6,7-tetrahydro-benzo[b]thiophen-2-yl]-3-(3-hydroxy-propylsulfanylmethyl)-benzamide] | 1.01
7 | O=C(Nc1sc2c(c1C(=O)N/N=C/c1cccc(F)c1)CCCC2)c1cccc(CSCCCO)c1 [Compound 607, N-[3-(3-Fluoro-benzylidene-hydrazinocarbonyl)-4,5,6,7-tetrahydro-benzo[b]thiophen-2-yl]-3-(3-hydroxy-propylsulfanylmethyl)-benzamide] | 0.43
8 | O=C(Nc1sc2c(c1C(=O)N/N=C/c1ccc(Cl)c(C(F)(F)F)c1)CCCC2)c1cccc(CSCCCO)c1 [Compound 608, N-[3-(4-Chloro-3-trifluoromethyl-benzylidene-hydrazinocarbonyl)-4,5,6,7-tetrahydro-benzo[b]thiophen-2-yl]-3-(3-hydroxy-propylsulfanylmethyl)-benzamide] | < 0.3
9 | CCN(CC)CCN(C)Cc1cccc(C(=O)Nc2sc3c(c2C(=O)N/N=C/c2ccc(C)cc2)CCCC3)c1 [Compound 610, 3-{[(2-Diethylamino-ethyl)-methyl-amino]-methyl}-N-[3-(4-methyl-benzylidene-hydrazinocarbonyl)-4,5,6,7-tetrahydro-benzo-[b]thiophen-2-yl]-benzamide] | 1.82
10 | Cc1ccc(/C=N/NC(=O)c2c(NC(=O)c3cccc(CN4CCC(N5CCCCC5)CC4)c3)sc3c2CCCC3)cc1C [Compound 615, 3-[1,4′]Bipiperidinyl-1′-ylmethyl-N-[3-(3,4-dimethyl-benzylidene-hydrazinocarbonyl)-4,5,6,7-tetrahydro-benzo[b]thiophen-2-yl]-benzamide] | 2.08
11 | O=C(Nc1sc2c(c1C(=O)N/N=C/c1ccc(Cl)c(C(F)(F)F)c1)CCCC2)c1cccc(CN2CCC(N3CCCCC3)CC2)c1 [Compound 619, 3-[1,4′]Bipiperidinyl-1′-ylmethyl-N-[3-(4-chloro-3-trifluoromethyl-benzylidene-hydrazinocarbonyl)-4,5,6,7-tetrahydro-benzo[b]thiophen-2-yl]-benzamide] | < 3

Other lines, results leading:

Row | IC50 [µM] | SMILES
12 | 1.47 | Cc1csc(NC(=O)c2cccc(CN3CCC(O)CC3)c2)c1C(=O)N/N=C/c1ccc(Cl)c(C(F)(F)F)c1 [Compound 597, N-[3-(4-Chloro-3-trifluoromethyl-benzylidene-hydrazinocarbonyl)-4-methyl-thiophen-2-yl]-3-(4-hydroxy-piperidin-1-ylmethyl)-benzamide]
13 | 53 | COc1ccc(/C=N/NC(=O)c2c(C)csc2NC(=O)c2cccc(CN3CCC(O)CC3)c2)cc1 [Compound 598, 3-(4-Hydroxy-piperidin-1-ylmethyl)-N-[3-(4-methoxy-benzylidene-hydrazinocarbonyl)-4-methyl-thiophen-2-yl]-benzamide]
14 | < 3 | Cc1ccc(/C=N/NC(=O)c2c(C)csc2NC(=O)c2cccc(CN3CCC(CO)CC3)c2)cc1C [Compound 599, N-[3-(3,4-Dimethyl-benzylidene-hydrazinocarbonyl)-4-methyl-thiophen-2-yl]-3-(4-hydroxymethyl-piperidin-1-ylmethyl)-benzamide]
15 | 3.84 | Cc1ccc(/C=N/NC(=O)c2c(C)csc2NC(=O)c2cccc(CN3CCC(CO)CC3)c2)cc1 [Compound 600, 3-(4-Hydroxymethyl-piperidin-1-ylmethyl)-N-[4-methyl-3-(4-methyl-benzylidene-hydrazinocarbonyl)-thiophen-2-yl]-benzamide]
16 | < 3 | Cc1csc(NC(=O)c2cccc(CN3CCC(CO)CC3)c2)c1C(=O)N/N=C/c1ccc(F)cc1 [Compound 601, N-[3-(4-Fluoro-benzylidene-hydrazinocarbonyl)-4-methyl-thiophen-2-yl]-3-(4-hydroxymethyl-piperidin-1-ylmethyl)-benzamide]
17 | < 3 | Cc1csc(NC(=O)c2cccc(CN3CCC(CO)CC3)c2)c1C(=O)N/N=C/c1ccc(Cl)c(C(F)(F)F)c1 [Compound 603, N-[3-(4-Chloro-3-trifluoromethyl-benzylidene-hydrazinocarbonyl)-4-methyl-thiophen-2-yl]-3-(4-hydroxymethyl-piperidin-1-ylmethyl)-benzamide]
18 | < 0.3 | CCN(CC)CCN(C)Cc1cccc(C(=O)Nc2sc3c(c2C(=O)N/N=C/c2ccc(C)c(C)c2)CCCC3)c1 [Compound 609, 3-{[(2-Diethylamino-ethyl)-methyl-amino]-methyl}-N-[3-(3,4-dimethyl-benzylidene-hydrazinocarbonyl)-4,5,6,7-tetrahydro-benzo[b]thiophen-2-yl]-benzamide]
19 | 2.16 | CCN(CC)CCN(C)Cc1cccc(C(=O)Nc2sc3c(c2C(=O)N/N=C/c2ccc(F)cc2)CCCC3)c1 [Compound 611, 3-{[(2-Diethylamino-ethyl)-methyl-amino]-methyl}-N-[3-(4-fluoro-benzylidene-hydrazinocarbonyl)-4,5,6,7-tetrahydro-benzo-[b]thiophen-2-yl]-benzamide]
20 | 2.34 | CCN(CC)CCN(C)Cc1cccc(C(=O)Nc2sc3c(c2C(=O)N/N=C/c2cccc(F)c2)CCCC3)c1 [Compound 612, 3-{[(2-Diethylamino-ethyl)-methyl-amino]-methyl}-N-[3-(3-fluoro-benzylidene-hydrazinocarbonyl)-4,5,6,7-tetrahydro-benzo-[b]thiophen-2-yl]-benzamide]
21 | 1.41 | CCN(CC)CCN(C)Cc1cccc(C(=O)Nc2sc3c(c2C(=O)N/N=C/c2ccc(Cl)c(C(F)(F)F)c2)CCCC3)c1 [Compound 613, N-[3-(4-Chloro-3-trifluoromethyl-benzylidene-hydrazinocarbonyl)-4,5,6,7-tetrahydro-benzo[b]thiophen-2-yl]-3-{[(2-diethylamino-ethyl)-methyl-amino]-methyl}-benzamide]
22 | 3.29 | CCN(CC)CCN(C)Cc1cccc(C(=O)Nc2sc3c(c2C(=O)N/N=C/c2ccc(OC)cc2)CCCC3)c1 [Compound 614, 3-{[(2-Diethylamino-ethyl)-methyl-amino]-methyl}-N-[3-(4-methoxy-benzylidene-hydrazinocarbonyl)-4,5,6,7-tetrahydro-benzo-[b]thiophen-2-yl]-benzamide]
23 | 13.9 | Cc1ccc(/C=N/NC(=O)c2c(NC(=O)c3cccc(CN4CCC(N5CCCCC5)CC4)c3)sc3c2CCCC3)cc1 [Compound 616, 3-[1,4′]Bipiperidinyl-1′-ylmethyl-N-[3-(4-methyl-benzylidene-hydrazinocarbonyl)-4,5,6,7-tetrahydro-benzo[b]thiophen-2-yl]-benzamide]
24 | 3.68 | O=C(Nc1sc2c(c1C(=O)N/N=C/c1ccc(F)cc1)CCCC2)c1cccc(CN2CCC(N3CCCCC3)CC2)c1 [Compound 617, 3-[1,4′]Bipiperidinyl-1′-ylmethyl-N-[3-(4-fluoro-benzylidene-hydrazinocarbonyl)-4,5,6,7-tetrahydro-benzo[b]thiophen-2-yl]-benzamide]
25 | 4.25 | O=C(Nc1sc2c(c1C(=O)N/N=C/c1cccc(F)c1)CCCC2)c1cccc(CN2CCC(N3CCCCC3)CC2)c1 [Compound 618, 3-[1,4′]Bipiperidinyl-1′-ylmethyl-N-[3-(3-fluoro-benzylidene-hydrazinocarbonyl)-4,5,6,7-tetrahydro-benzo[b]thiophen-2-yl]-benzamide]
